Source: patent US20030181418A1, “Pharmaceutical composition” (SANKYO COMPANY, LIMITED, priority 2002, published 2003)
Like-named read-outs stand apart in the source and are kept apart here.

Tested on: Lewis rat with adjuvant (Mycobacterium butyricum) induced arthritis
Type: in vivo
Details: distal end of right-and-left thighbone, 21st day after adjuvant, 14th to 20th day
[1] = Example 2, celecoxib 1 mg/kg orally every day and/or Preparation 22 3.5 mg/kg intraperitoneally

| Molecule | Bone density (average ± standard deviation) [1] [mg/cm^2] | Bone density (average ± standard deviation) (Example 1, loxoprofen sodium 5 mg/kg orally and/or Preparation 4 0.1 mg/kg intraperitoneally, every day) [mg/cm^2] |
| --- | --- | --- |
| Cc1ccc(-c2cc(C(F)(F)F)nn2-c2ccc(S(N)(=O)=O)cc2)cc1 [Celecoxib, celecoxib] | 103.0 ± 1.8 | – |
| CC(C(=O)O)c1ccc(CC2CCCC2=O)cc1 (stereo not drawn) [Loxoprofen sodium, loxoprofen sodium] | – | 106.5 ± 0.8 |
| Preparation 22: complex of recombinant human OCIF dimer and DS5; DS5 150 mg/ml, OCIF 5 mg/ml, 7° C., pH 10.5, 168 hours (conjugate, UniProt O00300 22-401, looked up, dimer complexed with DS5, complex of recombinant human OCIF dimer and DS5; DS5 150 mg/ml, OCIF 5 mg/ml, 7° C., pH 10.5, 168 hours) Tumor necrosis factor …: ETFPPKYLHYDEETSHQLLCDKCPPGTYLKQHCTAKWKTVCAPCPDHYYTDSWHTSDECLYCSPVCKELQYVKQECNRTHNRVCECKEGRYLEIEFCLKHRSCPPGFGVVQAGTPERNTVCKRCPDGFFSNETSSKAPCRKHTNCSVFGLLLTQKGNATHDNICSGNSESTQKCGIDVTLCEEAFFRFAVPTKFTPNWLSVLVDNLPGTKVNAESVERIKRQHSSQEQTFQLLKLWKHQNKDQDIVKKIIQDIDLCENSVQRHIGHANLTFEQLRSLMESLPGKKVGAEDIEKTIKACKPSDQILKLLSLWRIKNGDQDTLKGLMHALKHSKTYHFPKTVTQSLKKTIRFLHSFTMYKLYQKLFLEMIGNQVQSVKISCL | 104.2 ± 2.1 | – |
